Measured values published in paper PMC10447463, “Data-mining unveils structure–property–activity correlation of viral infectivity enhancing self-assembling peptides” (Nature Communications, 2023).
Read-outs that look alike come from different tables or passages of the source.

Tests used:
[1] = Turbidity, derived count rate of scattered light; format: physicochemical; conditions: for Count Rate / kcps: derived count rate of scattered light at 633 nm, 173°, from zeta-potential measurement, 0.1 mg/mL in 1 mM KCl after 1 d at 1 mg/mL in PBS, turbidity / microscopic aggregation, mean of triplicate
Outline: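 One-day room-temperature aggregation at 1 mg/mL in PBS (pH 7.4) preceded measurement; samples then went into 1 mM KCl. Triplicates per sample, two independent experiments averaged.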

[2] = format: physicochemical; parameters: key to Fibril / Fibril Formation / TEM 2cat / Fibril: 1 = fibrils present; 0 non-fibrillar structures; conditions: for Fibril / Fibril Formation: 1 mg/mL, uranyl acetate stain, qualitative
[3] = Zeta-potential measurement; format: physicochemical
Outline: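 Dissolve peptide from DMSO (10 mg/mL stock) into PBS pH 7.4 to 1 mg/mL. Incubate 1 d, RT. Dilute in 1 mM KCl just before reading. Derive zeta potential from mobility (Smoluchowski).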

[4] = β-sheet content by ATR-FT-IR; format: physicochemical; conditions: Fig. S7 panel A; β-sheet content by ATR-FT-IR
Outline: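 First, PNF was ultrafiltered (3 kDa MWCO, 16200 x g, 45 min, 4 °C). Next, filtrate and unfiltered sample were lyophilized and taken up in DMSO. Then fluorescamine was added for 20 min at RT before reading ex 365/em 470 nm. β-sheet: ATR FT-IR of lyophilized 1 mg/mL PNF.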

[5] = Log10 of derived count rate of scattered light (turbidity)
[6] = turbidity, Log10 of derived count rate of scattered light, Figure 3A source data
[7] = turbidity, log10 of derived count rate of scattered light
[8] = TEM, 1 = fibrils present, 0 = non-fibrillar
[9] = TEM, 1 = fibrils present, 0 = non-fibrillar structures
[10] = category: fibrils present or non-fibrillar
[11] = zeta potential of peptide assemblies
[12] = zeta-potential of peptide, source data of Figure 2C
[13] = zeta-potential of the peptide assemblies, mean, Figure 3A source data
[14] = logarithm of count rate in kcps
[15] = FigS12 panel A, fibril category by TEM

Row | Substance | Log10 Count Rate [1, 5] | Count Rate / kcps [1] | Log10 Count Rate [1, 6] | Log10 Count Rate [1, 7] | TEM 2cat ([2]; Fig S10 panel D) | Fibril / Fibril Formation ([2]; TEM) | Fibril [2, 8] | Fibril [2, 9] | TEM 2cat [2, 10] | Zeta-Pot. [3, 11] | Zeta-Potential / mV [3, 12] | Zeta-Potential / mV [3, 13] | b -sheet / % [4] | Log10 Count Rate [1, 14] | Fibril ([2]; Fig S10 panel E) | Zeta-Pot. [3] | TEM 2cat [2, 15] | Fibril ([2]; FigS12 panel B, TEM) | Log10 Count Rate ([1]; log10 of derived count rate of scattered light (turbidity))
1 | KIKIQIAMWQ | 2.733 | 541 kcps | 2.733 | 2.733 | 1 | 1 | 1 | 1 | 1 | 11.3 | 13.33 mV | 11.3 mV | 37.48% | – | – | – | – | – | –
2 | KIKIQIN | 1.638 | 43 kcps | 1.638 | 1.638 | 1 | 1 | 1 | 1 | 1 | 3.34 | 4.4 mV | 3.34 mV | 41.82% | 1.638 | – | – | – | – | –
3 | KIKIQINAWQ | 3.174 | 1494 kcps | 3.174 | 3.174 | 1 | 1 | 1 | 1 | 1 | 13.1 | 13.72 mV | 13.1 mV | 27.74% | – | – | – | – | – | –
4 | KIKIQINM | 2.418 | 262 kcps | 2.418 | 2.418 | 1 | 1 | 1 | 1 | 1 | 8.51 | 10.17 mV | 8.51 mV | 41% | – | 1 | – | – | – | –
5 | KIKIQINMAQ | 3.768 | 5859 kcps | 3.768 | 3.768 | 1 | 1 | 1 | 1 | 1 | 3.07 | 6.27 mV | 3.07 mV | 45.78% | – | – | – | – | – | –
6 | KIKIQINMW | 2.38 | 240 kcps | 2.38 | 2.38 | 1 | 1 | 1 | 1 | 1 | 19.7 | 17.12 mV | 19.7 mV | 45.5% | – | – | – | – | – | –
7 | KIKIQINMWA | 3.042 | 1101 kcps | 3.042 | 3.042 | 1 | 1 | 1 | 1 | 1 | 14.7 | 16.43 mV | 14.7 mV | 49.91% | – | – | – | – | – | –
8 | KIKIQINMWQ | 3.342 | 2196 kcps | 3.342 | 3.342 | 1 | 1 | 1 | 1 | 1 | – | 15.7 mV | 14.87 mV | 42.41% | – | 1 | 14.87 | – | – | –
9 | KIKQIIN | 1.806 | 64 kcps | 1.806 | 1.806 | 0 | 0 | 0 | 0 | – | -11.7 | -5.929 mV | -11.7 mV | 37.69% | 1.806 | – | – | 0 | 0 | –
10 | KIKQIINM | 3.395 | 2481 kcps | 3.395 | 3.395 | 1 | 1 | 1 | 1 | 1 | 16.3 | 18.1 mV | 16.3 mV | 44% | – | 1 | – | – | – | –
11 | KIKQIINMWQ | 2.789 | 616 kcps | 2.789 | 2.789 | 1 | 1 | 1 | 1 | 1 | – | 16.2 mV | 15.37 mV | 40.68% | 2.789 | 1 | 15.37 | – | – | –
12 | KIRGKFEKED | 2.331 | 214 kcps | 2.331 | 2.331 | 0 | 0 | 0 | 0 | – | – | -7.197 mV | -12.7 mV | 28.67% | – | – | -12.7 | 0 | 0 | –
13 | KKFQKKFQ | 1.867 | 74 kcps | 1.867 | 1.867 | 0 | 0 | 0 | 0 | – | – | -6.175 mV | -9.19 mV | 40.421% | – | – | -9.19 | 0 | 0 | –
14 | KNDKND | 1.719 | 52 kcps | 1.719 | 1.719 | 0 | 0 | 0 | 0 | – | – | -11.85 mV | -15 mV | 43.2531% | – | – | -15 | 0 | 0 | –
15 | KNERIKNERI | 2.508 | 322 kcps | 2.508 | 2.508 | 0 | 0 | 0 | 0 | – | – | -11.61 mV | -16 mV | 37.95% | – | 0 | -16 | 0 | 0 | –
16 | KVKGVGK | 1.709 | 51 kcps | 1.709 | 1.709 | 0 | 0 | 0 | 0 | – | – | -7.825 mV | -12.8 mV | 8.763% | – | – | -12.8 | 0 | 0 | –
17 | KVKVKVQV | 1.975 | 94 kcps | 1.975 | 1.975 | 0 | 0 | 0 | 0 | – | – | -0.6533 mV | -3.41 mV | 43.06% | – | – | -3.41 | 0 | 0 | –
18 | KWKWQW | 3.189 | 1545 kcps | 3.189 | – | 0 | 0 | 0 | 0 | – | 7.55 | 3.331 mV | 7.55 mV | 30.47% | 3.189 | – | – | 0 | 0 | 3.189
19 | KYKGAIIGNIK | 1.644 | 44 kcps | 1.644 | 1.644 | 0 | 0 | 0 | 0 | – | – | -5.205 mV | -9.14 mV | 44.63% | – | – | -9.14 | 0 | 0 | –
